Results taken from PubChem BioAssay (NCI).
“And” between values parts separate entries of the source, which are not always exact repeats. Equal entries are not always repeated.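 Five compound concentrations were applied to cells in 96-well plates for 48 hours; endpoints were derived by simple linear interpolation of the resulting dose-response curve. The concentration for 50% growth inhibition is given as GI50. TGI: total growth inhibition.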

How the values were obtained:
Experiment in all cases: inhibition of tumour cell growth, NCI panel, 48 h
MDA-MB-435 = tested on: MDA-MB-435
MCF7 breast = tested on: MCF7 breast
DU-145 prostate = tested on: DU-145 prostate
DMS 273 small cell lung = tested on: DMS 273 small cell lung
M19-MEL melanoma = tested on: M19-MEL melanoma
LXFL 529 NSCLC = tested on: LXFL 529 NSCLC
RXF-631 renal = tested on: RXF-631 renal
MDA-N = tested on: MDA-N

## O=C(O)c1ccccc1NCn1nc(-c2ccccc2O)oc1=S
MDA-MB-435
  GI50: > 100000 nM
  TGI: > 100000 nM
MCF7 breast
  GI50: 46700 nM
  TGI: > 100 µM

## O=C(Nc1ccc(-n2cc(-c3ccncc3)c(-c3ccc(Cl)c(O)c3)n2)cc1)c1cc(C(F)(F)F)cc(C(F)(F)F)c1
MDA-MB-435
  GI50: 4110 nM
  TGI: 80500 nM
MCF7 breast
  GI50: 3530 nM
  TGI: 13.8 µM
DU-145 prostate
  GI50: 12300 nM
  TGI: 54.7 µM

## Cn1cc(-c2ccc3ncc(-c4ccc(CC(=O)Nc5cc(C(C)(C)C)nn5C)cc4)cc3c2)cn1
MDA-MB-435
  GI50: 1250 nM
  TGI: > 20000 nM
MCF7 breast
  GI50: 1470 nM
  TGI: > 20 µM
DU-145 prostate
  GI50: 1100 nM
  TGI: > 20 µM

## O=C1Nc2ccc(-c3cccnc3)cc2/C1=C/c1cc(Br)c(O)c(Br)c1
MDA-MB-435
  GI50: 4600 nM
  TGI: > 21700 nM
MCF7 breast
  GI50: 11400 nM
  TGI: > 25 µM
DU-145 prostate
  GI50: 6280 nM
  TGI: > 25 µM

## COc1ccccc1/C=C(\NC(=O)c1ccccc1)c1nc2ccc(Cl)cc2[nH]1
DMS 273 small cell lung
  TGI: > 100 µM
M19-MEL melanoma
  TGI: > 100 µM
LXFL 529 NSCLC
  TGI: 62.9 µM

## O=C(O)c1ccccc1C(=O)c1ccco1
DMS 273 small cell lung
  TGI: > 100 µM
M19-MEL melanoma
  TGI: > 100 µM

## CCOC1c2nc3ccccc3nc2-c2ccccc2N1C(C)=O (stereo not given)
DMS 273 small cell lung
  TGI: > 100 µM
M19-MEL melanoma
  TGI: > 100 µM
LXFL 529 NSCLC
  TGI: > 100 µM
RXF-631 renal
  TGI: > 100 µM

## N#Cc1c(-c2ccccc2)c(-c2ccccc2)cc2c(=O)c3ccc(Cl)cc3[nH]c12
DMS 273 small cell lung
  TGI: > 100 µM
M19-MEL melanoma
  TGI: > 100 µM
LXFL 529 NSCLC
  TGI: > 100 µM

## Cc1cc(OC2OC(CO)C(O)C(O)C2O)ccc1O (stereo not given)
MDA-N
  TGI: > 100 µM
MDA-MB-435
  TGI: > 100000 nM
MCF7 breast
  TGI: > 100 µM

## O=c1c2ccccc2nc(-c2cccc(Cl)c2)n1NC1OC(CO)C(O)C(O)C1O (stereo not given)
DMS 273 small cell lung
  TGI: > 100 µM
M19-MEL melanoma
  TGI: > 100 µM
LXFL 529 NSCLC
  TGI: > 100 µM
RXF-631 renal
  TGI: > 100 µM

## OCCNc1nc2ccccc2c2[nH]c3ccccc3c12
MDA-MB-435
  GI50: 528 nM
  TGI: 1810 nM
MCF7 breast
  GI50: 355 nM
  TGI: 2 µM
DU-145 prostate
  GI50: 659 nM
  TGI: 12.5 µM

## C[C@]12CCc3nc(Nc4ccc(O)cc4)sc3C1=CC[C@@H]1[C@@H]2CC[C@]2(C)/C(=N/NC(N)=S)CC[C@@H]12
MDA-MB-435
  GI50: 664 nM
  TGI: 2050 nM
MCF7 breast
  GI50: 1150 nM
  TGI: 3.01 µM
DU-145 prostate
  GI50: 1640 nM
  TGI: 3.15 µM

## CCOC(=O)C1=C(C)N(NC(N)=O)C2(N)N(NC(N)=O)C(C)=C(C(=O)OCC)C12C#N (stereo not given)
DMS 273 small cell lung
  TGI: > 100 µM
M19-MEL melanoma
  TGI: > 100 µM
LXFL 529 NSCLC
  TGI: > 100 µM
RXF-631 renal
  TGI: > 100 µM

## Cc1ccccc1Nc1cc(O)c2c(=O)cc(-c3ccccc3)oc2c1
MDA-MB-435
  GI50: 315 nM
  TGI: 1930 nM
MCF7 breast
  GI50: 821 nM
  TGI: > 100 µM
DU-145 prostate
  GI50: 3780 nM
  TGI: > 100 µM

## CCN1C(=O)N(CC)C2C1NC(=S)N2/N=C/C=C/c1ccccc1 (stereo not given)
MDA-MB-435
  GI50: 25.3 nM
  TGI: 66.4 nM
MCF7 breast
  GI50: 41.8 nM
  TGI: > 100 µM
DU-145 prostate
  GI50: 377 nM
  TGI: > 100 µM

## CC(C)(C)O/N=C/c1cc(NC(=S)c2ccccc2)ccc1Cl
MDA-N
  TGI: 29.9 µM
MDA-MB-435
  TGI: 88700 nM
MCF7 breast
  TGI: > 100 µM
DU-145 prostate
  TGI: 42.1 µM

## N#CN1CC[C@H](C(=O)Nc2ncc(-c3ccccc3)s2)C1
MDA-MB-435
  GI50: 273 nM
  TGI: 1730 nM
MCF7 breast
  GI50: 190 nM
  TGI: 1.32 µM
DU-145 prostate
  GI50: 814 nM
  TGI: 2.04 µM

## COc1cccc(-c2cc(=O)c3cc(N4CCN(C)CC4)ccc3[nH]2)c1
MDA-N
  GI50: 349 nM
  TGI: 0.923 µM and 4.25 µM
MDA-MB-435
  GI50: 160 nM
  TGI: 554 nM and 364 nM
MCF7 breast
  GI50: 3720 nM
  TGI: > 100 µM

## CC[n+]1c(-c2ccccc2)c2cc(N)ccc2c2ccc(N)cc21
MDA-N
  TGI: 19 µM
MDA-MB-435
  GI50: 1110 nM
  TGI: 2560 nM and 12500 nM
DMS 273 small cell lung
  TGI: 10.7 µM
M19-MEL melanoma
  TGI: 10.5 µM
MCF7 breast
  GI50: 1070 nM
  TGI: 12.9 µM and 15.3 µM
LXFL 529 NSCLC
  TGI: 2.94 µM
DU-145 prostate
  GI50: 2000 nM
  TGI: 13.3 µM and 42 µM

## OCc1ccc(-c2ccc(-c3ccc(CO)o3)o2)o1
MDA-MB-435
  GI50: > 100000 nM
  TGI: > 100000 nM
MCF7 breast
  GI50: 16700 nM
  TGI: > 100 µM
DU-145 prostate
  GI50: > 62400 nM
  TGI: > 100 µM

## O=C1c2cccc3c(N4CCOCC4)ccc(c23)C(=O)N1CCN1CCN(CCCCCN2CCN(CCN3C(=O)c4cccc5c(N6CCOCC6)ccc(c45)C3=O)CC2)CC1
MDA-MB-435
  GI50: > 100000 nM
  TGI: > 100000 nM
MCF7 breast
  GI50: 77600 nM
  TGI: > 100 µM
DU-145 prostate
  GI50: > 100000 nM
  TGI: > 100 µM

## N=C(N)n1cc(/C=N/N=C(N)N)cn1
MDA-N
  TGI: > 100 µM
MDA-MB-435
  TGI: > 100000 nM
MCF7 breast
  TGI: > 100 µM
DU-145 prostate
  TGI: > 100 µM

## Oc1cn(-c2ccc(Cl)cc2)nc1-c1n[nH]c(=S)n1-c1ccc(F)cc1
MDA-MB-435
  GI50: 4930 nM
  TGI: > 100000 nM
MCF7 breast
  GI50: 24800 nM
  TGI: > 100 µM
DU-145 prostate
  GI50: 22000 nM
  TGI: > 100 µM

## Cc1ccc(S(=O)(=O)Nc2ccccc2C(C)(C)C)cc1
DMS 273 small cell lung
  TGI: 38.5 µM
M19-MEL melanoma
  TGI: 82.3 µM
LXFL 529 NSCLC
  TGI: 78.1 µM

## O=C(Nc1nc2ccc(S(=O)(=O)Nc3ccc(C4(C(F)(F)F)CC4)cc3)cc2[nH]1)c1cnccn1
MDA-MB-435
  GI50: 330 nM
  TGI: 1400 nM
MCF7 breast
  GI50: 551 nM
  TGI: 13.4 µM
DU-145 prostate
  GI50: 2880 nM
  TGI: 13.2 µM

## COC(=O)c1ccc(NC(N)=NCCC(C)(C)c2ccc(C(F)(F)F)cc2)nc1
MDA-MB-435
  GI50: 1830 nM
  TGI: 4160 nM
MCF7 breast
  GI50: 1700 nM
  TGI: 3.87 µM
DU-145 prostate
  GI50: 3440 nM
  TGI: 13.9 µM

## NC1=NC(c2ccccc2Cl)c2c(n[nH]c2N)N1 (stereo not given)
MDA-MB-435
  GI50: 15000 nM
  TGI: > 100000 nM
MCF7 breast
  GI50: 7090 nM
  TGI: > 100 µM
DU-145 prostate
  GI50: 61000 nM
  TGI: > 100 µM

## CCN(CC)CCNc1n[n+]([O-])c2cc([N+](=O)[O-])ccc2[n+]1[O-]
MDA-N
  TGI: 2.48 µM and 1.65 µM and 1.2 µM
MDA-MB-435
  TGI: 2710 nM and 2370 nM and 2290 nM
MCF7 breast
  GI50: 274 nM and 110 nM and 136 nM
  TGI: 1.91 µM and 2.17 µM and 1.99 µM
DU-145 prostate
  GI50: 1200 nM and 630 nM and 578 nM
  TGI: 6.15 µM and 3.57 µM and 3.16 µM

## COc1ccc(-c2cnc(-c3ccncc3-c3cccc(OC)c3)o2)cc1
MCF7 breast
  GI50: 113 nM
  TGI: 12.2 µM
DU-145 prostate
  GI50: 40.8 nM
  TGI: 12.9 µM

## CCOC(=O)C[C@@]12CCCN[C@]1(C)CCc1ccccc12
M19-MEL melanoma
  TGI: > 100 µM
LXFL 529 NSCLC
  TGI: > 100 µM
